Assay results from ChEMBL document CHEMBL1201861, “Genomics of Drug Sensitity in Cancer screening data, Wellcome Trust Sanger Institute”.

Columns and labels:
Assay in all cases: cells
IST-MES1 = type: functional, cell-based, Homo sapiens; settings: Homo sapiens, IST-MES1;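 also: growth inhibition of IST-MES1 cells, measured with a cell viability assay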
Description: SANGER: Inhibition of human IST-MES1 cell growth in a cell viability assay.

EW-24 = type: functional, cell-based; settings: Homo sapiens;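 also: human EW-24 cancer cell line, growth inhibition read out via a cell viability assay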
Description: SANGER: Inhibition of human EW-24 cell growth in a cell viability assay.

COLO-668 = type: functional, cell-based, Homo sapiens; settings: Homo sapiens, COLO-668
Description: SANGER: Inhibition of human COLO-668 cell growth in a cell viability assay.

EW-18 = type: functional, cell-based; settings: Homo sapiens;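 also: growth inhibition of EW-18 cells, read out by a cell viability assay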
Description: SANGER: Inhibition of human EW-18 cell growth in a cell viability assay.

IST-MEL1 = type: functional, cell-based, Homo sapiens; settings: Homo sapiens, IST-MEL1;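 also: growth inhibition of the cell line, read out with a cell viability assay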
Description: SANGER: Inhibition of human IST-MEL1 cell growth in a cell viability assay.

EW-1 = type: functional, cell-based, Homo sapiens; settings: Homo sapiens, EW-1
Description: SANGER: Inhibition of human EW-1 cell growth in a cell viability assay.

MFM-223 = type: functional, cell-based, Homo sapiens; settings: Homo sapiens, MFM-223
Description: SANGER: Inhibition of human MFM-223 cell growth in a cell viability assay.

COR-L88 = type: functional, cell-based; settings: Homo sapiens;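 also: growth inhibition of COR-L88 cells, read out with a cell viability assay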
Description: SANGER: Inhibition of human COR-L88 cell growth in a cell viability assay.

QIMR-WIL = type: functional, cell-based; settings: Homo sapiens;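 also: growth inhibition of QIMR-WIL cells, read out with a cell viability assay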
Description: SANGER: Inhibition of human QIMR-WIL cell growth in a cell viability assay.

NB6 = type: functional, cell-based, Homo sapiens; settings: Homo sapiens, NB6
Description: SANGER: Inhibition of human NB6 cell growth in a cell viability assay.

LNCaP-Clone-FGC = type: functional, cell-based, Homo sapiens; settings: Homo sapiens, LNCaP-Clone-FGC
NCI-H23 = type: functional, cell-based, Homo sapiens; settings: Homo sapiens, NCI-H23;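 also: cell viability assay measuring growth inhibition of NCI-H23 cells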
SK-N-FI = type: functional, cell-based, Homo sapiens; settings: Homo sapiens, SK-N-FI;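 also: cell viability assay measuring growth inhibition of human SK-N-FI cells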
Description: SANGER: Inhibition of human SK-N-FI cell growth in a cell viability assay.

RPMI-8866 = type: functional, cell-based; settings: Homo sapiens
Description: SANGER: Inhibition of human RPMI-8866 cell growth in a cell viability assay.

TE-10 = type: functional, cell-based, Homo sapiens; settings: Homo sapiens, TE-10;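 also: growth inhibition of TE-10 cells, measured by a cell viability assay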
Description: SANGER: Inhibition of human TE-10 cell growth in a cell viability assay.

NB17 = type: functional, cell-based; settings: Homo sapiens;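 also: growth inhibition of NB17 cells, read out with a cell viability assay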
Description: SANGER: Inhibition of human NB17 cell growth in a cell viability assay.

NCI-H1355 = type: functional, cell-based, Homo sapiens; settings: Homo sapiens, NCI-H1355;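 also: growth inhibition of human NCI-H1355 cells, read out by a cell viability assay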
Description: SANGER: Inhibition of human NCI-H1355 cell growth in a cell viability assay.

NCI-H209 = type: functional, cell-based; settings: Homo sapiens;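 also: growth inhibition of human NCI-H209 cells, measured by a cell viability assay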
Description: SANGER: Inhibition of human NCI-H209 cell growth in a cell viability assay.

NB69 = type: functional, cell-based, Homo sapiens; settings: Homo sapiens, NB69;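 also: growth inhibition of NB69 cells, determined by a cell viability assay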
Description: SANGER: Inhibition of human NB69 cell growth in a cell viability assay.

NCI-H1304 = type: functional, cell-based; settings: Homo sapiens;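 also: growth inhibition of the cancer cell line, measured in a cell viability assay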
Description: SANGER: Inhibition of human NCI-H1304 cell growth in a cell viability assay.

HDLM-2 = type: functional, cell-based; settings: Homo sapiens;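 also: cell viability assay measuring suppression of HDLM-2 proliferation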
Description: SANGER: Inhibition of human HDLM-2 cell growth in a cell viability assay.

UACC-257 = type: functional, cell-based, Homo sapiens; settings: Homo sapiens, UACC-257
Description: SANGER: Inhibition of human UACC-257 cell growth in a cell viability assay.

CCRF-CEM = type: functional, cell-based; settings: Homo sapiens;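 also: inhibition of CCRF-CEM cell growth, measured by a cell viability assay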
Description: SANGER: Inhibition of human CCRF-CEM cell growth in a cell viability assay.

MLMA = type: functional, cell-based, Homo sapiens; settings: Homo sapiens, MLMA;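 also: growth inhibition of MLMA cells (human), determined through a cell viability readout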
Description: SANGER: Inhibition of human MLMA cell growth in a cell viability assay.

TE-5 = type: functional, cell-based, Homo sapiens; settings: Homo sapiens, TE-5;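 also: inhibition of cell growth, read out by a cell viability assay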
Description: SANGER: Inhibition of human TE-5 cell growth in a cell viability assay.

SMILES | IC50 (IST-MES1) | IC50 (EW-24) | IC50 (COLO-668) | IC50 (EW-18) | IC50 (IST-MEL1) | IC50 (EW-1) | IC50 (MFM-223) | IC50 (COR-L88) | IC50 (QIMR-WIL) | IC50 (NB6) | IC50 (LNCaP-Clone-FGC) | IC50 (NCI-H23) | IC50 (SK-N-FI) | IC50 (RPMI-8866) | IC50 (TE-10) | IC50 (NB17) | IC50 (NCI-H1355) | IC50 (NCI-H209) | IC50 (NB69) | IC50 (NCI-H1304) | also measured
CO[C@H]1C[C@@H]2CC[C@@H](C)[C@@](O)(O2)C(=O)C(=O)N2CCCC[C@H]2C(=O)O[C@H]([C@H](C)C[C@@H]2CC[C@@H](O)[C@H](OC)C2)CC(=O)[C@H](C)/C=C(\C)[C@@H](O)[C@@H](OC)C(=O)[C@H](C)C[C@H](C)/C=C/C=C/C=C/1C [SIROLIMUS] | > 100 nM | > 100 nM | > 100 nM | > 100 nM | > 100 nM | 2.17 nM | > 100 nM | > 100 nM | 11.8 nM | > 100 nM | > 100 nM | > 100 nM | > 100 nM | > 100 nM | 3.3 nM | > 100 nM | 1.01 nM | 87.4 nM | > 100 nM | 57.2 nM | IC50 (HDLM-2): > 100 nM; IC50 (UACC-257): > 100 nM; IC50 (CCRF-CEM): 4.94 nM; IC50 (MLMA): > 100 nM; IC50 (TE-5): > 100 nM
CNC(=O)c1cc(Oc2ccc(NC(=O)Nc3ccc(Cl)c(C(F)(F)F)c3)cc2)ccn1 [SORAFENIB] | > 4000 nM | > 4000 nM | > 4000 nM | > 4000 nM | > 4000 nM | > 4000 nM | > 4000 nM | > 4000 nM | > 4000 nM | > 4000 nM | > 4000 nM | > 4000 nM | > 4000 nM | > 4000 nM | > 4000 nM | > 4000 nM | > 4000 nM | > 4000 nM | > 4000 nM | > 4000 nM | IC50 (HDLM-2): > 4000 nM; IC50 (UACC-257): > 4000 nM; IC50 (CCRF-CEM): > 4000 nM; IC50 (MLMA): > 4000 nM; IC50 (TE-5): 3130 nM
CCC(=O)N1CCN(c2ccc(-n3c(=O)ccc4cnc5ccc(-c6cnc7ccccc7c6)cc5c43)cc2C(F)(F)F)CC1 [TORIN1] | 235 nM | > 1200 nM | 294 nM | > 1200 nM | 17.7 nM | 7.49 nM | > 1200 nM | 1110 nM | 80.6 nM | 52.7 nM | > 1200 nM | 84.4 nM | > 1200 nM | > 1200 nM | 33.1 nM | 117 nM | 16.5 nM | 230 nM | 322 nM | > 1200 nM | IC50 (HDLM-2): > 1200 nM; IC50 (UACC-257): 98.3 nM; IC50 (CCRF-CEM): 33.7 nM; IC50 (MLMA): 67.8 nM; IC50 (TE-5): 38.5 nM
Cc1cc(Nc2cc(N3CCN(C)CC3)nc(Sc3ccc(NC(=O)C4CC4)cc3)n2)n[nH]1 [TOZASERTIB] | > 2000 nM | > 2000 nM | > 2000 nM | > 2000 nM | > 2000 nM | 1190 nM | > 2000 nM | > 2000 nM | 427 nM | 773 nM | > 2000 nM | > 2000 nM | > 2000 nM | > 2000 nM | 1130 nM | > 2000 nM | > 2000 nM | > 2000 nM | > 2000 nM | 1830 nM | IC50 (HDLM-2): > 2000 nM; IC50 (UACC-257): > 2000 nM; IC50 (CCRF-CEM): 653 nM; IC50 (MLMA): > 2000 nM; IC50 (TE-5): > 2000 nM
